According to ChEMBL document CHEMBL1201862, “PubChem BioAssay data set” (2004):
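Cultured in 96-well plates, cells were exposed to test compound for 48 hours across five concentrations. GI50 = concentration required for 50% inhibition of growth.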 Active and inactive are the calls of the source. No stated cut-off is given here; in the data, active = GI50 up to about 1.1 µM and inactive = higher.

Experiments:
Assay in all cases: growth of human tumour cells (NCI), 48 h
KM-20L2 = test system: KM-20L2
DLD-1 = test system: DLD-1
RXF 631 = test system: RXF 631
DMS-114 = test system: DMS-114
HOP-18 = test system: HOP-18
DMS-273 = test system: DMS-273
XF498 = test system: XF498
LXFL 529 = test system: LXFL 529
M19-MEL = test system: M19-MEL

| SMILES | GI50 (KM-20L2) | GI50 (DLD-1) | GI50 (RXF 631) | GI50 (DMS-114) | GI50 (HOP-18) | GI50 (DMS-273) | GI50 (XF498) | GI50 (LXFL 529) | GI50 (M19-MEL) |
| --- | --- | --- | --- | --- | --- | --- | --- | --- | --- |
| Cn1cnc2[nH]c(=O)[nH]c(=S)c21 | > 100 µM (inactive) | > 100 µM (inactive) | > 100 µM (inactive) | > 100 µM (inactive) | > 100 µM (inactive) | > 100 µM (inactive) | > 100 µM (inactive) | > 100 µM (inactive) | > 100 µM (inactive) |
| O=C1C(c2ccccc2)=C(c2ccccc2)C(c2ccc(Cc3ccc(C4=C(c5ccccc5)C(=O)C(c5ccccc5)=C4c4ccccc4)cc3)cc2)=C1c1ccccc1 | > 100 µM (inactive) | > 100 µM (inactive) |  | > 100 µM (inactive) | > 100 µM (inactive) | > 100 µM (inactive) | > 100 µM (inactive) |  | > 100 µM (inactive) |
| NC(CCCCN/C=C1/N=C(c2ccccc2)OC1=O)C(=O)O (configuration not stated) | > 100 µM (inactive) | > 100 µM (inactive) |  | > 100 µM (inactive) |  | > 100 µM (inactive) | > 100 µM (inactive) | > 100 µM (inactive) | > 100 µM (inactive) |
| C/C(=N\NC(=N)N)C(CN(CC(C)C)CC(C)C)C(=O)Nc1ccc(C)cc1C (configuration not stated) | > 100 µM (inactive) | > 100 µM (inactive) | > 100 µM (inactive) | > 100 µM (inactive) | > 100 µM (inactive) | > 100 µM (inactive) | 59.6 µM (inactive) | > 100 µM (inactive) | > 100 µM (inactive) |
| NNC(=O)C(=O)N/N=C(\CCC(=O)Nc1ccc(Cl)cc1)Cc1nc2ccccc2s1 | 45.5 µM (inactive) |  |  | 19.1 µM (inactive) | 5.33 µM (inactive) | 15.5 µM (inactive) |  | 26.4 µM (inactive) | 17.4 µM (inactive) |
| O=C1CCCC2=C(N1)C(=O)C=CC2=O | > 100 µM (inactive) | > 53.2 µM (inactive) | > 100 µM (inactive) | > 41.7 µM (inactive) | > 100 µM (inactive) | > 100 µM (inactive) | > 100 µM (inactive) | > 58.7 µM (inactive) | > 100 µM (inactive) |
| O=C(N/C(=C\c1ccc([N+](=O)[O-])cc1)c1nc2c(O)nc(S)nc2[nH]1)c1ccccc1 | > 100 µM (inactive) | 53.7 µM (inactive) |  | 77.3 µM (inactive) |  |  | > 100 µM (inactive) | 65.2 µM (inactive) | > 100 µM (inactive) |
| COC(=O)NC(=O)c1cn(C2OC(CO)C(O)C2O)c(=O)[nH]c1=O (configuration not stated) | > 100 µM (inactive) | > 100 µM (inactive) |  |  |  |  |  | > 100 µM (inactive) | > 100 µM (inactive) |
| O=c1c2ccccc2c(=O)n2n1-c1cccc(c1)CSSCc1cccc-2c1 | > 100 µM (inactive) | > 10 µM (inactive) | > 10 µM (inactive) | > 10 µM (inactive) | > 10 µM (inactive) | > 10 µM (inactive) | 62.2 µM (inactive) | > 10 µM (inactive) | > 10 µM (inactive) |
| CC(=O)NNc1nc(C)c(C(=O)/C=C/c2ccccc2Cl)s1 | > 100 µM (inactive) | > 100 µM (inactive) | > 100 µM (inactive) | > 100 µM (inactive) | > 100 µM (inactive) | > 100 µM (inactive) |  |  | > 100 µM (inactive) |
| Nc1ccc(C(=O)N/C(=C\C=C\c2ccco2)c2nc3c4c(ccc3[nH]2)C(=O)c2ccccc2C4=O)cc1 | 55.6 µM (inactive) | 13.3 µM (inactive) | 32.8 µM (inactive) | 18.5 µM (inactive) | 11.4 µM (inactive) | 29.5 µM (inactive) | > 100 µM (inactive) | 49.1 µM (inactive) | 79.6 µM (inactive) |
| CCCCCCCCCCCCOC(=N)N1CCOCC1 | 3.43 µM (inactive) | 3.3 µM (inactive) | 8.18 µM (inactive) | 6.7 µM (inactive) | 2 µM (inactive) | 9.55 µM (inactive) | 13.3 µM (inactive) | 4.06 µM (inactive) | 5.22 µM (inactive) |
| c1ccc(C2=NN(c3ccccc3)C3(S2)SC(c2ccccc2)(c2ccccc2)c2ccccc23)cc1 (configuration not stated) | > 100 µM (inactive) | > 100 µM (inactive) |  | > 100 µM (inactive) |  | > 100 µM (inactive) | > 100 µM (inactive) | > 100 µM (inactive) | > 100 µM (inactive) |
| COc1cc(C2c3cc4c(cc3[C@@H](Nc3ccc([N+](=O)[O-])cc3)C3COC(=O)[C@H]23)OCO4)cc(OC)c1O (some centres not stated) | 2.12 µM (inactive) |  | 1.6 µM (inactive) | 1.52 µM (inactive) | 11.2 µM (inactive) | 0.555 µM (active) | 2.07 µM (inactive) | 6.4 µM (inactive) | 3.06 µM (inactive) |
| OCCN(CCO)c1cccc(N(CCO)CCO)c1 | 38.5 µM (inactive) | > 100 µM (inactive) | > 100 µM (inactive) | > 100 µM (inactive) |  | > 100 µM (inactive) | > 100 µM (inactive) | > 100 µM (inactive) | > 100 µM (inactive) |
| CC(C)c1cccc(C(C)C)c1NC(=O)C(=O)Cc1nc2ccc([N+](=O)[O-])cc2nc1O | 20.1 µM (inactive) | > 100 µM (inactive) | 40.8 µM (inactive) | 10.5 µM (inactive) | > 100 µM (inactive) | 44.4 µM (inactive) |  | 28.2 µM (inactive) | 80.9 µM (inactive) |
